These results are taken from article PMC10164576, “Interaction with the carboxy-terminal tip of SSB is critical for RecG function in E. coli” (Nucleic Acids Research, 2023).

This assay addresses RecG R474E (Escherichia coli, UniProt P24230, R474E). Nature of the assay: Fluorescence anisotropy binding of 6-FAM-labelled SSB-Ct peptide to RecG R474E. More on the design: species or system E. coli. The conditions noted are these: 10 nM 6-FAM peptide, pH 7.6, 25°C, triplicate, read-out: FP K D. An excerpt: In vivo assembly mutagenesis ([78]) was used to introduce the R474E or R95A mutation into RecG overexpression plasmid pEAW111 to create variant overexpression plasmids pNJB3 and pEAW1324, respectively. RecG R474E or RecG R95A were expressed in STL2669/pT7pol26 and purified using the same purification scheme as wildtype RecG. The purified proteins appeared as single bands on SDS-PAGE gels and were quantified using monomer extinction coefficient ε280 nm = 5.022 × 10^4 M^−1 cm^−1. The RecG R95A preparation included a very weak nickase contaminant.
SSB peptides (sequences listed in Figure 2) were designed with an N-terminal tryptophan residue for quantification and N-terminal 6-FAM label (Genscript). […] Fluorescence polarization (FP) values were measured at 25°C using a Beacon 2000 Fluorescence Polarization System. Polarization values were normalized to the FP value measured at 0 nM RecG. […]
To more rigorously and quantitatively test the RecG HD2/SSB-Ct binding model, a RecG variant in which one of the putative SSB-binding residues is altered (RecG R474E) was purified and tested for binding to the SSB-Ct peptide and to full-length SSB in vitro. […] Binding was not detected in either titration (Figure 4C). […]
In general terms: Fluorescence polarisation rises when a labelled molecule tumbles more slowly, as on binding a larger partner.

Where no end group is shown, it is not given here.

As to WMDFDDDIPF [SSB-Ct peptide], the Kd is over 30 µM.
